According to US20080254136A1, “Antiprotozoal Agent” (JAPAN HEALTH SCIENCES FOUNDATION, priority 2004, published 2008):
Values after ≈ are worked out from the molar mass of the structure shown.

tested on: leishmania; assay: antileishmanial activity measurement (leishmania culture, Tetracolor ONE, OD 450-630 nm); assay type: cell-based; settings: leishmania culture 2×10^5/ml, 27° C., 5% CO2, 48 hours, then Tetracolor ONE 6 hours; mean of 3 wells
Text: A hexane extract from Lithospermi Radix (obtained by the method used for Reference example 1), a hexane extract from a mixture of Lithospermi Radix and Angelicae Radix (obtained by the method used for Reference example 2), shikonin (Nagara Science), acetylshikonin (Nagara Science), β,β-dimethylacrylshikonin (Nagara Science), isobutyrylshikonin (Nagara Science), α-methyl-n-butyrylshikonin (Nagara Science), isovalerylshikonin (Nagara Science), β-hydroxyisovalerylshikonin (Nagara Science), and alkanine (Wako Pure Chemical Industries, Ltd.) were subjected to antileishmanial activity measurement.
First, 1 to 5 mg of each sample was dissolved in dimethylsulfoxide (DMSO) such that DMSO solutions (10 mg/ml) were prepared. Then, the solutions were diluted with Medium 199 (800 μg/ml) and allowed to pass through a membrane filter. The resulting test solutions were adjusted to 9 different concentrations. The test solutions (50 μl) at different concentrations and a leishmania culture solution (50 μl) that had been adjusted to a final concentration of 2×10^5/ml were introduced into wells of a microtiter plate such that the total volume of each culture solution was 100 μl in each well. After incubation at 27° C. in the presence of 5% CO2 for 48 hours, 10 μl of a Tetracolor ONE reagent was added thereto, followed by incubation for 6 hours. Thereafter, the OD value (450-630 nm) was measured using a microplate reader. Each sample at each concentration (3 wells) was subjected to measurement such that the mean value was obtained. Then, a graph was created such that the IC50 value was obtained.

| SMILES | IC50 [µg/mL] |
| --- | --- |
| CC(C)=CC[C@@H](OC(=O)CC(C)(C)O)C1=CC(=O)c2c(O)ccc(O)c2C1=O [β-hydroxyisovalerylshikonin] | 0.19 (≈ 0.489 µM) |
| CC(C)=CC[C@@H](OC(=O)C(C)C)C1=CC(=O)c2c(O)ccc(O)c2C1=O [Isobutyrylshikonin, isobutyrylshikonin] | 0.017 (≈ 0.0474 µM) |
| CC(C)=CCC(OC(=O)C=C(C)C)C1=CC(=O)c2c(O)ccc(O)c2C1=O (stereo not drawn) [β,β-dimethylacrylshikonin] | 0.014 (≈ 0.0378 µM) |
| CCC(C)C(=O)OC(CC=C(C)C)C1=CC(=O)c2c(O)ccc(O)c2C1=O (stereo not drawn) [α-methyl-n-butyrylshikonin] | 0.014 (≈ 0.0376 µM) |
| CC(=O)O[C@H](CC=C(C)C)C1=CC(=O)c2c(O)ccc(O)c2C1=O [Acetylshikonin, acetylshikonin] | 0.026 (≈ 0.0787 µM) |
| CC(C)=CC[C@@H](O)C1=CC(=O)c2c(O)ccc(O)c2C1=O [Shikonin, shikonin] | 0.09 (≈ 0.312 µM) |
| CC(C)=CCC(OC(=O)CC(C)C)C1=CC(=O)c2c(O)ccc(O)c2C1=O (centres unmarked) [Isovalerylshikonin, isovalerylshikonin] | 0.02 (≈ 0.0537 µM) |

same assay, conditions: leishmania culture 2×10^5/ml, 27° C., 5% CO2, 48 hours, then Tetracolor ONE 6 hours; mean of 3 wells; read-out: IC50

| SMILES | IC50 [µg/mL] |
| --- | --- |
| CC(C)=CC[C@H](O)C1=CC(=O)c2c(O)ccc(O)c2C1=O [Alkanine, alkanine] | 0.028 (≈ 0.0971 µM) |
